Test results from patent publication EP1438307B1, “DERIVATIVES OF 4-(THIO- OR SELENOXANTHENE-9-YLIDENE)-PIPERIDINE OR ACRIDINE AND ITS USE AS A SELECTIVE 5-HT2B RECEPTOR ANTAGONIST” (Biofrontera Pharmaceuticals GmbH, priority 2001, dated 2003).

How the values were obtained:
5-HT2A receptor = molecular target: T1, 5-HT2A receptor (Homo sapiens, UniProt P28223); experiment: 5-HT2A receptor binding, [3H]ketanserin competition (counter screen); details: read-out: Receptor Affinity: pK Values 5-HT2A receptor (converted)
T1 construct: expressed in transfected cells; host or cells: HEK293
Method: 5-HT2A receptors were labelled with [^3H]ketanserin in human cortex, in HEK293 cells expressing a cloned human 5-HT2A receptor and in HEK293 cells expressing the rat 5-HT2A receptor. For competition binding studies the ligand concentration was approximately 0.1 nM. For saturation binding studies concentrations of radioligand ranged from 0.01 nM to 2.0 nM. Assays were conducted in 0.5 ml of assay buffer (50 mM Tris-HCl, 4 mM calcium chloride, 0.1 % by weight ascorbic acid) (pH 7.4 at 4°C). Non-specifc binding was defined with […] unlabelled ketanserin. After a 60 min incubation at 32°C, membranes were harvested onto filters treated with 0.1 % by weight of polyethylenimine and the bound radioactivity was determined. Competition radioligand binding data was analyzed using a four parameter logistic equation and iterative curve-fitting techniques to obtain estimates of the IC50 and Hill slope. Kd values, determined from saturation binding studies were then used to calculate inhibition dissociation constants (Ki).

human 5-HT2B receptor = molecular target: T2, human 5-HT2B receptor (Homo sapiens, UniProt P41595); experiment: Cloned human 5-HT2B receptor binding assay, [3H]-5HT; details: HEK 293 cells transfected with human 5-HT2B receptor, read-out: Receptor Affinity: pK Values 5HT2B receptor (converted)
T2 construct: expressed in transfected cells; host or cells: HEK 293 (transient)
Method: The following describes an in vitro binding assay utilizing cloned 5-HT2B receptors radiolabelled with [^3H]-5HT. HEK 293 cells transiently transfected with an expression plasmid pXMD1-hu2B encoding the human 5-HT2B receptor (see Schmuck et al., FEBS Lett., 1994, 342, 85-90) were used as described previously (Schmuck et al., Eur. J. Pharmacol., 1996, 8, 959-967). Two days after transfection cells were harvested, pelleted at 500g for 5 min at 4°C, gently resuspended in ice-cold buffer1 (50 mM TRIS pH 7.7, 4 mM CaCl2) and homogenized using a Polytron PT 1200 tissue homogenizer (position 6 for 30 s). Cells were pelleted at 50,000g, 4°C for 10 min, washed with buffer1 and pelleted again. The final pellet was resuspended in incubation buffer (50 mM TRIS pH 7.7, 4 mM CaCl2, 10 µM pargyline and 0.1 % by weight ascorbic acid). The binding assay consisted of 300 µl of membrane suspension (protein concentration = 0.3 to 0.5 mg/ml), 150 µl of competing drug and 50 µl of [^3H]5-HT at a final concentration of 4 to 5 nM. The mixture was incubated at 37°C for 30 min and the assay terminated by rapid filtration and two washing steps with 5 ml of cold 20 mM Tris-HCl pH = 7.5, and 154 mM NaCl over Whatman GFB filters. Filters were counted by liquid scintillation. Non-specific binding was determined in the presence of an excess of 5-HT (100 µM). Bound radioligand represented less than 1 % of free radioligand. In competition experiments, specific binding represented about 60 % of total binding. Results expressed as pKi values are shown in Table 1 Human 5-HT2B receptors were labelled in HEK293 cells as described above, except that the radioligand was [^3H]-5HT and that the assay buffer contained pargyline in a concentration of […] and 0.1 % by weight of ascorbic acid. For competition binding studies the radioligand concentration was approximately 0.4 nM while for saturation binding studies the concentration of [^3H]-5HT ranged from 0.05 to 8 nM. Non-specific binding was defined with […]. Incubations were for 120 min at 4°C. Competition radioligand binding data was analyzed using a four parameter logistic equation and iterative curve-fitting techniques to obtain estimates of the IC50 and Hill slope. Kd values, determined from saturation binding studies were then used to calculate inhibition dissociation constants (Ki).

human H1 receptor = molecular target: T3, human H1 receptor (Homo sapiens, UniProt P35367); experiment: Cloned human H1 receptor binding assay, [3H]-mepyramine; details: COS-7 cells transfected with human H1 receptor, read-out: Receptor Affinity: pK Values H1 receptor (converted)
T3 construct: expressed in transfected cells; host or cells: COS-7 (transient)
Method: COS-7 cells were transiently transfected with an expression plasmid pCineohH1, pCineohH2, pCineohH3 and pCineohH4 encoding the human Histamine H1, H2. H3 or H4 receptor, respectively. Transfected cells were harvested after 48 h, homogenized in ice-cold 50 mM Na2/potassium phosphate buffer (pH 7.4) and used for radioligand binding studies. Cell homogenates (40 - 50 µg of protein) were incubated for 30 min at 25°C in 50 mM Na2/potassium phosphate buffer (pH 7.4) in 400 µl with the various concentrations of either [^3H]-mepyramine, [^3H]-thiotidine, [^3H]-R-α-Methylhistamine, and [^3H]-pyramilamine for cells expressing recombinant human H1, H2. H3 and H4 receptors, respectively. The nonspecific binding was defined in the presence of 1 µM mianserin. In displacement studies, cell homogenated were incubated either with 1 nM [^3H]-mepyramine, 15 nM [^3H]-thiotidine, 0.5 nM [^3H]-R-α-Methylhistamine, or 15 nM [^3H]-pyramilamine and increasing concentrations of competing ligands. The incubations were stopped by rapid dilution with 3 ml of ice-cold 50 mM Na2/potassium phosphate buffer (pH 7.4). The bound radioactivity was seperated by filatration through Whatman GF/C filters that had been treated with 0.3 % polyethyleneimine. Filters were washed twice in 3 ml of buffer and radioactivity retained on the filters was measured by liquid scinitllation counting. The concentration of 1-methyl-4-(3-ethoxy-9H-thioxanthene-9-ylidene)-piperidine producing 50% inhibition of binding (IC50) was determined using iterative curve fitting techniques.

5-HT2C receptor = molecular target: T4, 5-HT2C receptor (Homo sapiens, UniProt P28335); experiment: 5-HT2C receptor binding, [3H]mesulergine competition (counter screen); details: read-out: Receptor Affinity: pK Values 5NT2C receptor (converted)
T4 construct: expressed in transfected cells; host or cells: Cos-7
T4 sequence (P28335 33-458): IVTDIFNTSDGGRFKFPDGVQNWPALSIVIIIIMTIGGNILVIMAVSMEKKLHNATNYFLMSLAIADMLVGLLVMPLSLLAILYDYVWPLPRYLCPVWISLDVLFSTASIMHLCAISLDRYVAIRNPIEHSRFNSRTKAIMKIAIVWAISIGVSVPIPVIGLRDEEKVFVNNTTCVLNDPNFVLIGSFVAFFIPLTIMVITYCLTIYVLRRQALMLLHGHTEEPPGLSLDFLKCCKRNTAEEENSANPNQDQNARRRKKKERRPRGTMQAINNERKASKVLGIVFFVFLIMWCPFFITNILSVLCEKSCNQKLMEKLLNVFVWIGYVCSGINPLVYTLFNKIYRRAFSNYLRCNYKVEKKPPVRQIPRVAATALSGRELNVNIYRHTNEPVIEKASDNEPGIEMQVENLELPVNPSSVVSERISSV
Method: 5-HT2C receptors were labelled in choroid plexus, Cos-7 cells expressing the human 5-HT2C receptor and in NIH-3T3 expressing the […]. Assays were conducted as described for the 5-HT2A receptor except that the radioligand was [^3H]mesulergine. The radioligand concentration for competition studies was approximately 0.2 nM while for saturation binding studies the concentration ranged from 0.1 to 18 nM. Non-specific binding was defined with 10 µM unlabelled mesulergine. Competition radioligand binding data was analyzed using a four parameter logistic equation and iterative curve-fitting techniques to obtain estimates of the IC50 and Hill slope. Kd values, determined from saturation binding studies were then used to calculate inhibition dissociation constants (Ki).

T2 sequence (P41595 whole entry): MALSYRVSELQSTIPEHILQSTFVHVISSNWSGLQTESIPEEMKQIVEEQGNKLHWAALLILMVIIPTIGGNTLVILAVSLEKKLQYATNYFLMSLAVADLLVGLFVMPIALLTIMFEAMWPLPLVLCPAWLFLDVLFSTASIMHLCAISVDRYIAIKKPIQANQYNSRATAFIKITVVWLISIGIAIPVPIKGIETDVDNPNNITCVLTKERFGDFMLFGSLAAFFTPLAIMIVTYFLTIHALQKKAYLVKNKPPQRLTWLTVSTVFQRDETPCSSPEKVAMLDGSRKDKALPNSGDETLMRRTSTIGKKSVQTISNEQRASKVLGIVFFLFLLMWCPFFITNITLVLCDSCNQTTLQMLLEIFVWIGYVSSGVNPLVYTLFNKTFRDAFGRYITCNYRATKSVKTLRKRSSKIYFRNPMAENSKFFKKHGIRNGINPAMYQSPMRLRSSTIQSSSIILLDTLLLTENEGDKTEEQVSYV
T3 sequence (P35367 whole entry): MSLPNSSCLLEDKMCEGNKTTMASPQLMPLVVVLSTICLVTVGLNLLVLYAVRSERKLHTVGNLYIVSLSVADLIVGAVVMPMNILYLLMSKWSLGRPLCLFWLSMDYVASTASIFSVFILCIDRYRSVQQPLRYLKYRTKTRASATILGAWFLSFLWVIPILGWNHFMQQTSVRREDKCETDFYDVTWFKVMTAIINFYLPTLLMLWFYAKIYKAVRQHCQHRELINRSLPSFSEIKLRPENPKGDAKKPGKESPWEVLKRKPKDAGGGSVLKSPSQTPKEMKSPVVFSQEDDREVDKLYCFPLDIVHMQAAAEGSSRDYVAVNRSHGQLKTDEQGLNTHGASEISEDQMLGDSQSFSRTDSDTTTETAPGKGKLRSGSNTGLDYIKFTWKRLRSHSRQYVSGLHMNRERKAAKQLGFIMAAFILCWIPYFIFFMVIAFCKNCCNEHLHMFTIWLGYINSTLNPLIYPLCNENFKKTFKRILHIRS
T1 sequence (P28223 whole entry): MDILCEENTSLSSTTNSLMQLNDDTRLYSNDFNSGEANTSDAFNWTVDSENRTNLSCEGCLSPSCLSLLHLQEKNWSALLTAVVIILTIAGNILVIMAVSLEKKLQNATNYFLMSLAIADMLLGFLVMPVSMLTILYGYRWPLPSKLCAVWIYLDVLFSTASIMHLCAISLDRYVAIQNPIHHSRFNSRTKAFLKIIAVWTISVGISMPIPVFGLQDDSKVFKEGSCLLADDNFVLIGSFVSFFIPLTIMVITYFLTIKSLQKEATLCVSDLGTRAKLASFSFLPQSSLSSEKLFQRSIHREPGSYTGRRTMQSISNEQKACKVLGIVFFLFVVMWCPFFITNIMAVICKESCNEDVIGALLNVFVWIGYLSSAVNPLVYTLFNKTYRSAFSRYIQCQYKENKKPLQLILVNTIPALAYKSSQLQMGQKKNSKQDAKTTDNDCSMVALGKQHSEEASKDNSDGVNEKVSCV

| Structure (SMILES) | Ki (5-HT2A receptor) | Ki (human 5-HT2B receptor) | Ki (human H1 receptor) | Ki (5-HT2C receptor) |
| --- | --- | --- | --- | --- |
| CCOc1ccc2c(c1)Nc1ccccc1C2=C1CCN(C)CC1 [3-Ethoxy-9-(1-methyl-piperidine-4-ylidene)-9,10-dihydro-acridine] | 1.17 nM | 0.741 nM | 29.5 nM | 37.2 nM |
| CCOc1ccc2c(c1)Sc1cccc(O)c1C2=C1CCN(C)CC1 [4-(6-Ethoxy-1-hydroxy-thioxanthen-9-yliden)-1-methyl-piperidine] | 1.51 nM | 0.0115 nM | 36.3 nM | 13.8 nM |
| CCOc1ccc2c(c1)Sc1cccc(OC)c1C2=C1CCN(C)CC1 [4-(6-Ethoxy-1-methoxy-thioxanthen-9-yliden)-1-methyl-piperidine] | 1.02 nM | 0.0447 nM | 3.72 nM | 17 nM |
| CC(C)c1ccc2c(c1)Sc1cccc(O)c1C2=C1CCN(C)CC1 [4-(6-Isopropyl-1-hydroxy-thioxanthen-9-yliden)-1-methyl-piperidine] | 0.776 nM | 0.12 nM | 35.5 nM | 30.2 nM |
| COc1cccc2c1C(=C1CCN(C)CC1)c1ccc(C(C)C)cc1S2 [4-(6-Isopropyl-1-methoxy-thioxanthen-9-yliden)-1-methyl-piperidine] | 0.741 nM | 0.17 nM | 10.5 nM | 16.2 nM |
| COc1ccc2c(c1)Sc1cccc(OC)c1C2=C1CCN(C)CC1 [4-(6-Methoxy-1-methoxy-thioxanthen-9-yliden)-1-methyl-piperidine] | 0.0427 nM | 0.00871 nM | 0.129 nM | 1.55 nM |
